Like-named read-outs stand apart in the source and are kept apart here.
Assays:
[1] = system: Leptosphaeria nodorum; experiment: Leptosphaeria nodorum test (wheat)/protective; format: in vivo
Method: (§1) Solvent: 49 parts by weight of N,N-dimethylformamide
(§2) Emulsifier: 1 part by weight of alkylaryl polyglycol ether
(§3) To produce a suitable preparation of active compounds, 1 part by weight of active compound is mixed with the stated amounts of solvent and emulsifier, and the concentrate is diluted with water to the desired concentration.
To test for protective activity, young wheat plants are sprayed with the active compound preparation at the stated application rate. 1 day after the treatment, the plants are inoculated with an aqueous spore suspension of Leptosphaeria nodorum and then remain at 100% rel. atmospheric humidity and 22° C. for 48 h. The plants are then placed in a greenhouse at 90% rel. atmospheric humidity and a temperature of 22° C.
Evaluation is carried out 7-9 days after the inoculation. 0% means an efficacy which corresponds to that of the control, whereas an efficacy of 100% means that no infection is observed.

[2] = system: Alternaria solani; experiment: Alternaria test (tomato)/protective; format: in vivo
Method: as §1, §2
To produce a suitable preparation of active compound, 1 part by weight of active compound is mixed with the stated amounts of solvent and emulsifier, and the concentrate is diluted with water to the desired concentration.
To test for protective activity, young tomato plants are sprayed with the active compound preparation at the stated application rate. 1 day after the treatment, the plants are inoculated with a spore suspension of Alternaria solani and then remain at 100% rel. humidity and 22° C. for 24 h. The plants then remain at 96% rel. atmospheric humidity and a temperature of 20° C.
(§4) Evaluation is carried out 7 days after the inoculation. 0% means an efficacy which corresponds to that of the control, whereas an efficacy of 100% means that no infection is observed.

[3] = system: Phytophthora infestans; format: in vivo
[4] = system: Sphaerotheca fuliginea; experiment: Sphaerotheca test (cucumber)/protective; format: in vivo
Method: as §1, §2, §3
To test for protective activity, young cucumber plants are sprayed with the active compound preparation at the stated application rate. 1 day after the treatment, the plants are inoculated with a spore suspension of Sphaerotheca fuliginea. The plants are then placed in a greenhouse at 70% rel. atmospheric humidity and a temperature of 23° C.
as §4

[5] = system: Botrytis cinerea; experiment: Botrytis test (bean)/protective; format: in vivo; conditions: 100 ppm active compound, protective, evaluation 2 days after inoculation
Method: (§5) Solvents: 24.5 parts by weight of acetone
(§6) • 24.5 parts by weight of dimethylacetamide Emulsifier: 1 part by weight of alkylaryl polyglycol ether
(§7) To produce a suitable preparation of active compound, 1 part by weight of active compound is mixed with the stated amounts of solvents and emulsifier, and the concentrate is diluted with water to the desired concentration.
To test for protective activity, young plants are sprayed with the active compound preparation at the stated application rate. After the spray coating has dried on, 2 small pieces of agar colonized by Botrytis cinerea are placed onto each leaf. The inoculated plants are placed in a dark chamber at about 20° C. and 100% relative atmospheric humidity.
2 days after the inoculation, the size of the infected areas on the leaves is evaluated. 0% means an efficacy which corresponds to that of the control, whereas an efficacy of 100% means that no infection is observed.

[6] = system: Venturia inaequalis; experiment: Venturia test (apple)/protective; format: in vivo; conditions: 100 ppm active compound, protective, evaluation 10 days after inoculation
Method: Solvents: 24.5 parts by weight of acetone • 24.5 parts by weight of dimethylacetamide Emulsifier: 1 part by weight of alkylaryl polyglycol ether
as §7
(§8) To test for protective activity, young plants are sprayed with the active compound preparation at the stated application rate. After the spray coating has dried on, the plants are inoculated with an aqueous conidia suspension of the apple scab pathogen Venturia inaequalis and then remain in an incubation cabin at about 20° C. and 100% relative atmospheric humidity for 1 day.
(§9) The plants are then placed in a greenhouse at about 21° C. and a relative atmospheric humidity of about 90%.
(§10) Evaluation is carried out 10 days after the inoculation. 0% means an efficacy which corresponds to that of the control, whereas an efficacy of 100% means that no infection is observed.

[7] = system: Pyrenophora teres; experiment: Pyrenophora teres test (barley)/protective; format: in vivo
Summary of the method: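 Protective test: young barley plants sprayed at the stated rate with compound in DMF/alkylaryl polyglycol ether diluted with water, inoculated with P. teres spores 1 day later, kept 48 h at 100% rel. humidity and 22° C., then greenhouse at 80% and 20° C. Efficacy scored 7-9 days post-inoculation (0% = control, 100% = no infection).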

[8] = system: Uromyces appendiculatus; experiment: Uromyces test (bean)/protective; format: in vivo; conditions: in vivo
Method: as §5, §6, §7
as §8, with “spore” for “conidia”, “bean rust” for “apple scab”, “Uromyces appendiculatus” for “Venturia inaequalis”
as §9, §10

[9] = system: DON/AcDON production; experiment: microbe, parasite or virus in culture; format: cell-based, Fusarium graminearum; conditions: 7 days at 28° C.
[10] = system: Fusarium graminearum; experiment: microbe, parasite or virus in culture; format: cell-based
[11] = log P determination by HPLC retention times (alkan-2-one calibration)
[12] = 500 ppm active compound, wheat, protective, evaluation 7-9 days after inoculation
[13] = 500 ppm active compound, tomato, protective, evaluation 7 days after inoculation
[14] = log P(HCOOH), HCOOH, preparation examples in the text
[15] = log P, values marked [b] in Table 1
[16] = 500 ppm active compound, cucumber, protective, evaluation 7 days after inoculation
[17] = 500 ppm active compound, barley, protective, evaluation 7-9 days after inoculation

Row | SMILES | efficacy in % ([1]; in vivo) [%] | efficacy in % ([2]; in vivo) [%] | efficacy in % ([3]; in vivo) [%] | efficacy in % ([4]; in vivo) [%] | efficacy in % [5] [%] | efficacy in % [6] [%] | efficacy in % ([7]; in vivo) [%] | efficacy in % [8] [%] | % inhibition of DON/AcDON at 50 μM [9] [%] | % inhibition of the fungal growth of Fusarium graminearum at 50 μM ([10]; 50 μM) [%] | efficacy in % [1, 12] [%] | efficacy in % [2, 13] [%] | efficacy in % [3, 13] [%] | chromatographic logP [11, 14] | chromatographic logP ([11]; log P, values marked [a] in Table 1) | chromatographic logP [11, 15] | efficacy in % [4, 16] [%] | inhibition at 50 µM ([9]; Fusarium graminearum, 168 h) [%] | inhibition at 50 µM ([10]; Fusarium graminearum, 72 h, read-out: % inhibition of the fungal growth of Fusarium graminearum at 50 μM) [%] | efficacy in % [7, 17] [%]
1 | CC1CCc2c(-c3ccncc3)c(-c3ccc(F)cc3)nn21 (stereo not shown) [Example 74] | 88 | 95 | 90 | 93 | 100 | 95 | 100 |  |  |  |  |  |  |  |  |  |  |  |  | 
2 | COC1CCCn2nc(-c3ccc(F)cc3)c(-c3ccncc3)c21 (stereo not shown) [Example 85] | 75 |  | 90 | 85 | 100 |  | 100 | 85 |  |  |  |  |  |  |  |  |  |  |  | 
3 | CC(=O)Nc1cc(-c2c(-c3cccs3)nn3c2CCCC3)ccn1 [Example 87] | 70 | 80 | 90 | 95 | 100 |  | 90 | 93 |  |  |  |  |  |  |  |  |  |  |  | 
4 | c1ccc(-c2nn3c(c2-c2ccncc2)CCCC3)cc1 [Example 9] | 95 | 100 | 90 | 86 | 93 | 95 | 94 |  | 99 | 100 |  |  |  |  |  |  |  |  |  | 
5 | O=C(Nc1cc(-c2c(-c3cccs3)nn3c2CCCC3)ccn1)C1CC1 [Example 89] | 80 | 90 | 90 | 100 | 100 | 94 | 95 | 95 |  |  |  |  |  |  |  |  |  |  |  | 
6 | O=C(Cc1ccccc1)Nc1cc(-c2c(-c3ccccc3)nn3c2CCCC3)ccn1 [Example 35] | 90 | 94 | 80 |  | 96 | 95 | 78 |  |  |  |  |  |  |  |  |  |  |  |  | 
7 | CC(C)C(=O)Nc1cc(-c2c(-c3ccc(F)cc3)nn3c2CCOC3)ccn1 [Example 91] | 78 | 90 |  | 100 | 100 | 95 | 95 | 95 |  |  |  |  |  |  |  |  |  |  |  | 
8 | Fc1ccc(-c2nn3c(c2-c2ccncc2)CCCC3)cc1 [Example 2, 2-(4-Fluorophenyl)-3-(pyridin-4-yl)-4,5,6,7-tetrahydropyrazolo[1,5-a]pyridine] |  |  |  |  | 100 | 95 |  |  |  |  | 80 | 94 | 94 | 1.03 | 1.03 | 2.43 | 91 | 100 | 99 | 95
9 | CC(C)Nc1cc(-c2c(-c3ccccc3)nn3c2CCC3)ccn1 [Example 70, 4-[2-(Phenyl)-5,6-dihydro-4H-pyrrolo[1,2-b]pyrazol-3-yl]-N-isopropylpyridine-2-amine] |  |  |  |  |  | 100 |  |  |  |  | 90 | 90 | 95 | 1.21 |  | 2.69 | 94 |  |  | 80
